Like-named read-outs stand apart in the source and are kept apart here.
Key:
[1] = test system: ICR male mice; assay: Tail flick model for acute peripheral pain, i.p.; assay type: in vivo, mouse; details: 10 mg/kg i.p., 330 minutes (five and a half hours)
Method: ICR male mice (20-30 g average body weight, Harlan, Israel) were injected i.p. at the volume dose of 5 ml/kg. Each treatment group contained at least 6 animals. Morphine HCl was used as positive control at the final dose of 5 mg/kg. Its vehicle, saline, was also included as control. The test compounds were dissolved in CREMOPHOR EL®:ethanol and diluted 1:20 in saline prior to injection, this second type of vehicle was also included as negative control. The final dose injected varied from 0.1 to 10 mg/kg. At predetermined time points after treatment injection, the animals were placed in the tail flick system (Socrel, model DS 20). Animals were gently held while their tails were located above the photoelectric cell. The tails were then illuminated (21V) at 2 cm from the distal tip and the latency time, measured in seconds, was recorded in duplicates. At the end of the study, the animals were euthanized by i.p. injection of 100 mg/kg sodium pentobarbitone.
Two parameters were used to analyze the results, the latency time and the % of animals showing analgesia. […] The results in both cases are expressed as mean±SE. The differences between the latency times or the % of animals showing analgesia among various treatment groups was analyzed by analysis of variance (ANOVA) followed by post-hoc Tukey's test (for latency) or Fisher's exact test (for % animals). A value of p<0.05 is considered to be statistically significant.

[2] = test system: TNF-α secretion from activated RAW 264.7 macrophages; assay: Inhibition of TNF-α in LPS activated macrophages (ELISA); assay type: cell-based, mouse; details: doses up to 20 μM
From the text: (§1) The technique used to quantify the amount of a given protein in a liquid sample, either tissue culture supernatant or body fluid, is based on Enzyme Linked ImmunoSorbent Assay (ELISA) methodology. Either commercially available or established in house, the assay is based on the capture of the protein of interest by specific antibodies bound to the bottom of an ELISA plate well. Unbound material is washed away, the captured protein is then exposed to a secondary antibody generally labeled with horseradish peroxidase (HRP) or alkaline phosphatase (ALP). Again the unbound material is washed away, the samples are then incubated with the appropriate substrate yielding a calorimetric reaction. The reaction is stopped and reading is performed in a spectrophotometer at the appropriate wavelength. Samples are tested at least in duplicate and the appropriate standard curve, consisting of serial dilutions of the recombinant target protein, is incorporated on each plate. Concentration of the protein in the sample is calculated from the standard curve.
(§2) RAW 264.7 macrophages, a mouse cell line (ATCC # TIB-71), were grown in Dulbecco's modified Eagle's medium (DMEM) with 4 mM L-glutamine adjusted to contain 1.5 g/L sodium bicarbonate, 4.5 g/L glucose, and 10% heat inactivated fetal bovine serum. Cells were grown in tissue culture flasks and seeded at appropriate density into 24 wells tissue culture plates. 0.5×10^6 Raw cells in one milliliter were stimulated with 2 μg/ml Lipopolysaccharide E. coli 055:B5 (DIFCO Laboratories). The mouse macrophages were pre-treated for one hour with controls or 10 μM of bicyclic CB2 ligands and later on activated with LPS. Dexamethasone was used as a positive control at 50 nM. Supernatant was collected 4 hours (for PGE2) and 24 hours (for IL-1β and TNF-α) after activation, and the levels of the inflammatory agent under study were determined by ELISA, as previously described. Inhibition was calculated versus vehicle treated cells.
The activation of the macrophages is performed as previously described. The levels of TNF-α are measured in an ELISA assay as previously described. Inhibition is calculated versus vehicle treated cells.

[3] = molecular target: T1, human CB1 receptor (Homo sapiens, UniProt P21554); assay: biochemical; assay type: binding; details: displacement of [3H]CP55940, hCB1 HEK-293 membranes; read-out: CB1 IC50
T1 construct: purchased Perkin Elmer/NEN; host or cells: HEK-293 cells, stably transfected (membranes)
Method: (§3) In the present invention, binding affinity is represented by the IC50 value, namely the concentration of a test compound that will displace 50% of a radiolabeled agonist from the CB receptors. […] Preferably these ratios will be obtained for human CB1 and CB2 receptors. The selectivity toward CB2, denoted CB2/CB1 affinity, is calculated as the IC50 value obtained by the test compound for the displacement of the CB1 specific radioligand divided by the IC50 value obtained for the displacement of the CB2 specific radioligand, i.e. the IC50 CB1/IC50 CB2.
The CB1 binding assays were performed by testing the ability of the new compounds to displace [^3H]CP55940 from the CB1 receptor on membranes derived from hCB1 stably transfected HEK-293 cells (Perkin Elmer/NEN). Membranes were diluted in the assay buffer (50 mM Tris-HCl, 2.5 mM EDTA, 5 mM MgCl2, 1 mg/ml BSA, pH=7.4) to 500 μg protein/ml. 50 μl of diluted membranes (25 μg) were incubated with [^3H]CP55940 in the presence or absence of the bicyclic test compounds in a total volume of 0.5 ml. Tested compounds were dissolved in DMSO and diluted in the assay buffer to a final concentration of 0.1% solvent. Control samples were added with identical amount of vehicle. Non-specific binding was measured by the addition of 10 μM of WIN 55212-2. Following 1.5 hours incubation at 30° C. reactions were filtered through Whatman 934A/H filters (presoaked with 0.1% Polyethylenimine (PEI)).
(§4) Binding to CB1 is measured by competitive inhibition of [^3H]CP55940 in HEK-293 cells stably transfected with the human CB1 receptor gene. Binding to CB2 is measured by competitive inhibition of [^3H]WIN55212-2 in CHO cells stably transfected with the human CB2 receptor gene.

[4] = test system: PGE2 secretion from activated RAW 264.7 macrophages; assay: Inhibition of PGE2 in LPS activated macrophages (ELISA); assay type: cell-based, mouse; details: Mus musculus, RAW264.7; 4 hours after activation, doses 1 μM to 20 μM
From the text: as §1, §2
The activation of the macrophages is performed as previously described. The levels of PGE2 are measured in an ELISA assay as previously described. Inhibition is calculated versus vehicle treated cells. […] Results are depicted in FIG. 2B.

[5] = test system: Male Sprague Dawley rats; assay: Inflammatory pain: carrageenan paw edema in rats, thermal and mechanical stimuli; assay type: in vivo, rat; details: 10 mg/kg i.p., three hours
Method: Male Sprague Dawley rats (200 g average body weight, Harlan, Israel) are transiently sedated by placement on dry ice for the duration of the injections. […] Before induction of inflammatory pain and three hours after injection, the animals reactions to pain stimuli were tested in two systems. The first stimulus was thermal and assessed by the Plantar Test according to Hargreaves, using Ugo Basile Model 7370. The scale was set to an intensity of 50 arbitrary units. The latency time till the animal lift a paw as a reaction to the thermal stimulus was recorded for both the inflamed and non-inflamed hind paws. The second stimulus was mechanical (tactile) and assessed using a Dynamic Plantar Sesthesiomether (Ugo Basile Model 73400-002).
The results are measured as the differences between the two hind paws at time 0 and 3 hours both as ALT, for the latency time in the thermal part of the study, and as ΔForce, for the mechanical part of the study.

[6] = molecular target: T2, human CB2 receptor (Homo sapiens, UniProt P34972); assay: biochemical; assay type: binding; parameters: purchased Perkin Elmer/NEN; host or cells: CHO cells, stably transfected (membranes); details: for CB2/CB1 affinity ratio: IC50 CB1/IC50 CB2; for IC50: displacement of [3H]WIN 55212-2, hCB2 CHO membranes
Method: as §3
The affinities of the novel bicyclic analogs to the CB2 receptor were determined by their ability to displace [^3H]WIN 55212-2 from the receptor in membranes derived from hCB2 stably transfected CHO cells (Perkin Elmer/NEN). Membranes were diluted in assay buffer (10 mM HEPES, 1 mM MgCl2, 1 mM EDTA, 0.3 mg/ml BSA, pH=7.4) to 500 μg protein/ml. 50 μl of diluted membranes (25 μg) were incubated with 0.8 nM of [^3H]WIN 55212-2 in the presence or absence of several concentrations of the bicyclic test compounds in a total volume of 1 ml. Tested compounds were dissolved and diluted as previously described for the hCB1 assay. Non-specific binding was measured by the addition of 10 μM CP 55940. Following 40 minutes incubation at 30° C. reactions were filtered as previously described. Filters for all binding assays were counted in a β-counter and log of analog concentration versus % of binding was plotted. IC50 values were extrapolated from this plot.
as §4

[7] = test system: Female Balb/c mice
Method: The purpose of this study is to test in vivo the anti-inflammatory activity of the compounds in paw edema induced by injection of 1% carrageenan in the animal hind paw. Female Balb/c mice (20 g average body weight, Harlan, Israel) are anesthetized with a combination of xylazine and pentobarbitone diluted in sterile saline, 15 and 6 mg/kg i.p. respectively. Anesthetized mice are injected subcutaneously, in the subplantar region of one (right) paw with 0.05 ml of 1% w/v Carrageenan in sterile water. […] The test compounds, including known anti-inflammatory controls, are dissolved in CREMOPHOR EL®:ethanol and further diluted 1:20 or 1:50 in sterile saline prior to i.p. injection that takes place immediately before the carrageenan injection. Three hours after injection the animals are resedated following the previously described procedure. Paw thickness is measured using a dial thickness gauge (Spring-dial, constant low pressure gauge, Mitutoyo, TG/L-1, 0.01 mm) and paw volume is measured using a plethysmometer (model #7150, Ugo Basile, Italy). Paw Edema is expressed as the difference between the right treated and the left untreated paws of the same animal, either as Δ Paw Volume (ΔPV) in millimeters cube or as Δ Paw Thickness (ΔPT) in millimeters. Each group comprises at least 10 animals. […] At the end of the study, animals are euthanized with an i.p. injection of 100 mg/kg pentobarbitone.
The differences among various treatment groups are analyzed by analysis of variance (ANOVA) followed by post-hoc Fisher test. A value of p<0.05 is considered to be statistically significant.
For sake of comparison, known anti-inflammatory drugs such as Celecoxib and Dexamethasone yield respectively in the range of relevant doses 7% and 26% reduction in paw thickness at 0.1 mg/kg, 16% and 31% at 0.25 mg/kg and 24% and 33% at 0.5 mg/kg. […] It should be kept in mind that these commercially available drugs display serious side effects that prevent chronic uses without complementary protective medication.

[8] = molecular target: T2, human CB2 receptor; assay: Adenylylcyclase assay: forskolin-activated cAMP in CB2 transfected HEK-293 cells; assay type: cell-based; details: CB2 receptor transfected HEK-293, 1 μM forskolin
Method: Cannabinoids and derivatives bind to G-protein-coupled CB1 and CB2 receptors and exert their activity via the inhibition of adenylylcyclase activity. An adenylylcyclase assay forms a basis for the functional analysis of the compounds by determining their capacity to inhibit or promote forskolin-activated cAMP production. The assay is carried out according to Chin et al. (Chin, C. N. et al., J. Neurochem. 70: 366-73, 1998). Briefly, HEK-293 human kidney cells (ATCC#CRL-1573) stably transfected with either the human CB1 or CB2 receptor (cDNA) were grown in DMEM supplemented with 10% fetal calf serum, 1% Penicillin-Streptomycin and 2 mM L-glutamine. Cells were seeded in 24 wells plate at 5×10^4 cells/well and incubated for 48 hours. Medium was then removed and the adherent cells were washed with PBS. Two hundred μl of serum free medium supplemented with 0.2 mM Ro 20-1724, 0.25% BSA, and 20 mM HEPES was then added to each well. The cells were then activated with 1 μM forskolin in presence of the bicyclic test compounds in concentrations ranging from 10 pM up to 1 μM. The activated cells were then incubated at 37° C. for 20 minutes and the reaction terminated with 1.2 M HCl to a final concentration of 0.1 M. Cells were lyzed by freeze and thaw and the lysate was neutralized with 2 M HEPES, pH 7.5. cAMP was measured in 50 μl aliquots using the [^3H]-cAMP assay system (Amersham).
This experiment was first performed on CB2 receptor transfected cells.

T2 sequence (P34972 whole entry): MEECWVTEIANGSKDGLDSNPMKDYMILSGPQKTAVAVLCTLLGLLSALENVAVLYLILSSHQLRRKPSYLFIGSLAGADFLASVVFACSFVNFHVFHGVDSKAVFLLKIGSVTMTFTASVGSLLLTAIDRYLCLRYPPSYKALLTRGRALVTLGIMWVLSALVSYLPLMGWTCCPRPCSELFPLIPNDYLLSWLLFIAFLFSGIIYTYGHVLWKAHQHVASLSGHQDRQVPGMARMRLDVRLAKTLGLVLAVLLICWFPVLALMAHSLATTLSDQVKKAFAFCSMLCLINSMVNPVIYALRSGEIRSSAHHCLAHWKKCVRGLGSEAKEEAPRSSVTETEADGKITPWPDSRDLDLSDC
T1 sequence (P21554 whole entry): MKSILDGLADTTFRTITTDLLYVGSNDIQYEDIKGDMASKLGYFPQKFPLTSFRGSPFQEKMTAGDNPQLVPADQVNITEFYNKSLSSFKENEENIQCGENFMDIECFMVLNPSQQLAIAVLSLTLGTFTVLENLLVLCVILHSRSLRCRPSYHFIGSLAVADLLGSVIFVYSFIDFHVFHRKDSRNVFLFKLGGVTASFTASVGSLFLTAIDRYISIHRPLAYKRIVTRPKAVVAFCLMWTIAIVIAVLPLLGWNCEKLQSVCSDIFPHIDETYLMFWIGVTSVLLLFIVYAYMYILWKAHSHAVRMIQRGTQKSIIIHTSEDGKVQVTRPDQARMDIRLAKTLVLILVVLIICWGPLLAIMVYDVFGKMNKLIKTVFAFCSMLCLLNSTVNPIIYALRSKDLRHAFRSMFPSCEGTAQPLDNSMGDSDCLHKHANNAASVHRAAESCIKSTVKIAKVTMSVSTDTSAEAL

CC(C)(CCCCBr)c1cc(O)c(C2CC(=O)C3CC2C3(C)C)c(O)c1 (single isomer, unassigned; (-)) [Compound N, (−)-4-[4-(5-Bromo-1,1-Dimethyl-pentyl)-2,6-dihydroxy-phenyl]-6,6-dimethyl-bicyclo[3.1.1]heptan-2-one]
% animals showing increased analgesia [1]: about 60% | latency time [1]: 5.4 s | effect on TNF-α secretion [2]: none of them did significantly affect TNF-α secretion | IC50 [3]: 0.05 µM | IC50 [4]: 7 µM | ΔForce (tactile stimulus) [5]: 6 g | ΔLT (thermal stimulus) [5]: 2 s | CB2/CB1 affinity ratio [6]: 139 | IC50 [6]: 0.00036 µM

Cc1ccc(-c2cc(C(F)(F)F)nn2-c2ccc(S(N)(=O)=O)cc2)cc1 [Celecoxib, reference compound]
reduction in paw thickness ([7]; 0.1 mg/kg): 7% | reduction in paw thickness ([7]; 0.25 mg/kg): 16% | reduction in paw thickness ([7]; 0.5 mg/kg): 24% | ΔLT (thermal stimulus) [5]: 0 s

CC(C)(CCCCC#N)c1cc(O)c([C@H]2CC(=O)[C@H]3C[C@@H]2C3(C)C)c(O)c1 [Compound P, (−)-4-[4-(1,1-Dimethyl-pentyl-5-nitrile)-2,6-dihydroxy-phenyl]-6,6-dimethyl-bicyclo[3.1.1]heptan-2-one]
effect on TNF-α secretion [2]: none of them did significantly affect TNF-α secretion | IC50 [3]: 0.227 µM | IC50 [4]: 18 µM | CB2/CB1 affinity ratio [6]: 146 | IC50 [6]: 0.00155 µM

CCCCCCC(C)(C)c1cc(OC(=O)CCC(=O)O)c([C@H]2CC(=O)[C@H]3C[C@@H]2C3(C)C)c(OC(=O)CCC(=O)O)c1 [Compound S, 4-{4-[1,1-Dimethyl-heptyl]-2,6-bisuccinate-phenyl}-6,6-dimethyl-bicyclo[3.1.1]heptan-2-one]
IC50 [3]: 0.117 µM | CB2/CB1 affinity ratio [6]: 77 | IC50 [6]: 0.00152 µM | IC50 ([8]; read-out: IC50 inhibition of cAMP level): 0.00016 µM | inhibition at 1 µM ([8]; HEK293, read-out: % inhibition at 1 μM): 58%

— patent publication US20050020544A1, “Bicyclic CB2 cannabinoid receptor ligands” (priority 2002, published 2005)
